Data on 26 molecules can be found in patent US11590116B2 (THERAVANCE BIOPHARMA R&D IP, LLC, priority 2019, dated 2023).

Molecules are shown by their SMILES.

Test [1] relates to TGF-β-stimulated SMAD3 phosphorylation in BEAS-2B cells. Nature of the test: Cellular ALK5 potency assay, inhibition of TGF-β stimulated pSMAD3 formation in BEAS-2B cells. It is filed as cell-based. The conditions noted are these: Homo sapiens; inhibition of TGF-β stimulated pSMAD3 formation, BEAS-2B cells; read-out: BEAS2B pIC50 (converted). The procedure, abridged:
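AlphaLISA pSMAD3 read-out, beads incubated overnight. Human BEAS-2B cells: 1 h compound preincubation (37 °C, 5% CO2), then 30 min TGF-β at 10 ng/mL final, immediate lysis. Values are pIC50 relative to stimulated, compound-free baseline.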

Test [2] deals with T1, recombinant human ALK5 (TGF-βR1) protein (Homo sapiens, UniProt P36897).
T1 construct: purchased Life Technologies PR9075A
T1 sequence (P36897 34-503): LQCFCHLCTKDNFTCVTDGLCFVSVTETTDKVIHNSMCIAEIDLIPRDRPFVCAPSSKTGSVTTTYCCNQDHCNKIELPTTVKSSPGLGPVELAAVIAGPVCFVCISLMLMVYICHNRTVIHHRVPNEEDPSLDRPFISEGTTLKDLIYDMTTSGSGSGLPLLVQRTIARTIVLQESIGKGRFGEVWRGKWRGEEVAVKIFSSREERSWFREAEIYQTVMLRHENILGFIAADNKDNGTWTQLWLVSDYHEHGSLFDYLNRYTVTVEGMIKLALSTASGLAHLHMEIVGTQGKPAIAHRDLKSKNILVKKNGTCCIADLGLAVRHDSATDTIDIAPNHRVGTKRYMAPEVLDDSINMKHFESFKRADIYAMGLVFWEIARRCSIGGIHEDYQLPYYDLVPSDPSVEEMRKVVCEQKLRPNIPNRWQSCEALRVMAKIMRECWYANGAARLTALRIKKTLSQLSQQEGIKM
The test is described as follows: Biochemical ALK5 (TGF-βR1) assay to measure pKi (LANCE Ultra ULight kinase assay). As to conditions: apparent pKi from pIC50 by Cheng-Prusoff, read-out: ALK5 pKi (converted). The procedure, abridged: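 Compounds (10 μM to 25 pM) preincubated 60 minutes at room temperature with enzyme, then reaction run 60 minutes at 37° C with ATP added as 125 μM (5× final). Stopped with EDTA plus Eu-anti-phospho-Topoisomerase 2-alpha (Thr1342) antibody, TR-FRET read at 665 nm; pIC50 converted to pKi via Cheng-Prusoff.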

As to `Cc1cccc(-c2n[nH]cc2-c2ccc3nccc(-c4cnn(CCN5CCOCC5)c4)c3n2)n1` [Compound 833, 4-[2-[4-[6-[3-(6-methyl-2-pyridyl)-1H-pyrazol-4-yl]-1,5-naphthyridin-4-yl]pyrazol-1-yl]ethyl]morpholine], in test [1], the IC50 was 25.1 to 158 nM. Further, the Ki in test [2] was 0.0398 to 0.316 nM.

On to `Cc1cccc(-c2nnn(Cc3ccccc3)c2-c2ccc3ncc(-c4cn[nH]c4)cc3n2)n1` [Compound 170, 2-[3-benzyl-5-(6-methyl-2-pyridyl)triazol-4-yl]-7-(1H-pyrazol-4-yl)-1,5-naphthyridine], for which the IC50 in test [1] was 25.1 to 158 nM. The Ki in test [2] is 0.0398 to 0.316 nM.

For `FC(F)c1cccc(-c2n[nH]cc2-c2ccc3ncc(N4CCCNCC4)cc3n2)n1` [Compound 446, 7-(1,4-diazepan-1-yl)-2-[3-[6-(difluoromethyl)-2-pyridyl]-1H-pyrazol-4-yl]-1,5-naphthyridine], in test [1], the IC50 is 25.1 to 158 nM. Also, the Ki in test [2] is 0.0398 to 0.316 nM.

`Cc1cccc(-c2[nH]cnc2-c2ccc3ncc(C4=CCN(C(C)C)C4)cc3n2)n1` [Compound 253, 7-(1-isopropyl-2,5-dihydropyrrol-3-yl)-2-[5-(6-methyl-2-pyridyl)-1H-imidazol-4-yl]-1,5-naphthyridine]: in test [1], the IC50 is 25.1 to 158 nM. Further, in test [2], the Ki is 0.0398 to 0.316 nM.

For `Cc1cccc(-c2[nH]cnc2-c2ccc3ncc(NCCN4CCC[C@H](N)C4)cc3c2)n1` [Compound 623, N-[2-[(3S)-3-amino-1-piperidyl]ethyl]-6-[5-(6-methyl-2-pyridyl)-1H-imidazol-4-yl]quinolin-3-amine], the IC50 in test [1] is 200 to 1260 nM. Moreover, in test [2], the Ki was 0.0398 to 0.316 nM.

Take `Cc1cccc(-c2[nH]cnc2-c2ccc3ncc(C4=CCC5(CC4)CNC5)cc3c2)n1` [Compound 294, 3-(2-azaspiro[3.5]non-6-en-7-yl)-6-[5-(6-methyl-2-pyridyl)-1H-imidazol-4-yl]quinoline]: the IC50 in test [1] is 25.1 to 158 nM. Further, the Ki in test [2] is 0.0398 to 0.316 nM.

With `CNCCn1cc(-c2cnc3ccc(-c4c[nH]nc4-c4cccc(C)n4)nc3c2OC)cn1` [Compound 127, 2-[4-[4-methoxy-6-[3-(6-methyl-2-pyridyl)-1H-pyrazol-4-yl]-1,5-naphthyridin-3-yl]pyrazol-1-yl]-N-methyl-ethanamine], the IC50 in test [1] was 25.1 to 158 nM. The Ki in test [2] was below 0.0316 nM.

As to `CNC(=O)c1cnc2ccc(-c3cn[nH]c3-c3cccc(C)n3)nc2c1` [Compound 675, N-methyl-6-[5-(6-methyl-2-pyridyl)-lH-pyrazol-4-yl]-1,5-naphthyridine-3-carboxamide], the IC50 in test [1] was 25.1 to 158 nM. Also, in test [2], the Ki is 0.0398 to 0.316 nM.

Consider `CNCCn1cc(-c2cnc3ccc(-c4c(-c5cccc(C)n5)nnn4Cc4ccccc4)nc3c2)cn1` [Compound 439, 2-[4-[6-[3-benzyl-5-(6-methyl-2-pyridyl)triazol-4-yl]-1,5-naphthyridin-3-yl]pyrazol-1-yl]-N-methyl-ethanamine], for which the IC50 in test [1] is 25.1 to 158 nM. Also, the Ki in test [2] was 0.0398 to 0.316 nM.

In the case of `COc1[nH]nc(-c2cccc(C)n2)c1-c1ccc2ncc(Br)cc2n1` [Compound 42, 7-bromo-2-(5-methoxy-3-(6-methylpyridin-2-yl)-1H-pyrazol-4-yl)-1,5-naphthyridine], the IC50 in test [1] is 25.1 to 158 nM. Besides, the Ki in test [2] was 0.0398 to 0.316 nM.

In the case of `Cc1cccc(-c2[nH]cnc2-c2ccc3ncc(-c4ccc(C(=O)OC5CCNCC5)s4)cc3c2)n1` [Compound 1010, piperidin-4-yl 5-(6-(5-(6-methylpyridin-2-yl)-1H-imidazol-4-yl)quinolin-3-yl)thiophene-2-carboxylate], the IC50 in test [1] was 25.1 to 158 nM. In addition, in test [2], the Ki was 0.0398 to 0.316 nM.

As for `Cc1cccc(-c2n[nH]cc2-c2ccc3ncc(OCC(=O)N4CCOCC4)cc3n2)n1` [Compound 486, 2-[[6-[3-(6-methyl-2-pyridyl)-1H-pyrazol-4-yl]-1,5-naphthyridin-3-yl]oxy]-1-morpholino-ethanone], the IC50 in test [1] is 1580 to 10000 nM. The Ki in test [2] was 3.98 to 31.6 nM.

Turning to `Cc1nc(-c2n[nH]cc2-c2ccc3ncc(-c4ncc5n4CCN5)cc3n2)ccc1F` [Compound 174, 7-(2,3-dihydro-1H-imidazo[1,2-c]imidazol-5-yl)-2-[3-(5-fluoro-6-methyl-2-pyridyl)-1H-pyrazol-4-yl]-1,5-naphthyridine], in test [1], the IC50 was 200 to 1260 nM. The Ki in test [2] was 0.0398 to 0.316 nM.

As to `Cc1cccc(-c2[nH]cnc2-c2ccc3ncc(C4=CCCCC4)cc3c2)n1` [Compound 147, 3-(cyclohexen-1-yl)-6-[5-(6-methyl-2-pyridyl)-1H-imidazol-4-yl]quinoline], the IC50 in test [1] was 25.1 to 158 nM. In test [2], the Ki is 0.0398 to 0.316 nM.

With `Cc1cccc(-c2nc3ccccn3c2-c2ccc3ncc(N4CCNCC4)cc3n2)n1` [Compound 473, 2-[2-(6-methyl-2-pyridyl)imidazo[1,2-a]pyridin-3-yl]-7-piperazin-1-yl-1,5-naphthyridine], the IC50 in test [1] was 25.1 to 158 nM. In test [2], the Ki was 0.0398 to 0.316 nM.

For `Cc1cccc(-c2[nH]cnc2-c2ccc3ncc(-c4nccc(C(=O)O[C@@H]5CCNC5)n4)cc3c2)n1` [Compound 1093, [(3R)-pyrrolidin-3-yl] 2-[6-[5-(6-methyl-2-pyridyl)-1H-imidazol-4-yl]-3-quinolyl]pyrimidine-4-carboxylate], the IC50 in test [1] was 200 to 1260 nM. Besides, the Ki in test [2] is 0.398 to 3.16 nM.

Take `Cc1nc(-c2n[nH]cc2-c2ccc3ncc(-c4nnn5c4NCC5)cc3n2)ccc1F` [Compound 520, 7-(5,6-dihydro-4H-imidazo[1,2-c]triazol-3-yl)-2-[3-(5-fluoro-6-methyl-2-pyridyl)-1H-pyrazol-4-yl]-1,5-naphthyridine]: the IC50 in test [1] is 25.1 to 158 nM. Moreover, the Ki in test [2] is below 0.0316 nM.

For the molecule `Cc1cccc(-c2[nH]cnc2-c2ccc3ncc(-c4cccc(C(=O)OC5CNC5)n4)cc3c2)n1` [Compound 1128, azetidin-3-yl 6-[6-[5-(6-methyl-2-pyridyl)-1H-imidazol-4-yl]-3-quinolyl]pyridine-2-carboxylate], the IC50 in test [1] is 25.1 to 158 nM. In addition, the Ki in test [2] is 0.0398 to 0.316 nM.

As for `Cc1cccc(-c2n[nH]cc2-c2ccc3ncc(-c4nnn5c4NCC5)cc3n2)n1` [Compound 5, 7-(5,6-dihydro-4H-imidazo[1,2-c]triazol-3-yl)-2-[3-(6-methyl-2-pyridyl)-1H-pyrazol-4-yl]-1,5-naphthyridine], in test [1], the IC50 was 25.1 to 158 nM. In test [2], the Ki was below 0.0316 nM.

With `Cc1cccc(-c2n[nH]cc2-c2ccc3ncc(-c4cnc5n4CCNC5)cc3n2)n1` [Compound 548, 2-[3-(6-methyl-2-pyridyl)-1H-pyrazol-4-yl]-7-(5,6,7,8-tetrahydroimidazo[1,2-a]pyrazin-3-yl)-1,5-naphthyridine], the IC50 in test [1] is 25.1 to 158 nM. Besides, the Ki in test [2] is 0.0398 to 0.316 nM.

With `Cc1cccc(-c2[nH]cnc2-c2ccc3ncc(C(=O)OCCCCN4CCCC4)cc3c2)n1` [Compound 714, 4-pyrrolidin-1-ylbutyl 6-[5-(6-methyl-2-pyridyl)-1H-imidazol-4-yl]quinoline-3-carboxylate], the IC50 in test [1] was 25.1 to 158 nM. Also, the Ki in test [2] was 0.0398 to 0.316 nM.

On to `Cc1cccc(-c2[nH]cnc2-c2ccc3ncc(NCCN4CCCC4(C)C)cc3c2)n1` [Compound 56, N-[2-(2,2-dimethylpyrrolidin-1-yl)ethyl]-6-[5-(6-methyl-2-pyridyl)-1H-imidazol-4-yl]quinolin-3-amine], for which, in test [1], the IC50 is 25.1 to 158 nM. The Ki in test [2] was below 0.0316 nM.

As for `COC(=O)CC1CNCCN1CCNc1cnc2ccc(-c3nc[nH]c3-c3cccc(C)n3)cc2c1` (stereo not shown) [Compound 659, methyl 2-[1-[2-[[6-[5-(6-methyl-2-pyridyl)-1H-imidazol-4-yl]-3-quinolyl]amino]ethyl]piperazin-2-yl]acetate], the IC50 in test [1] is 200 to 1260 nM. Besides, the Ki in test [2] was 0.0398 to 0.316 nM.

For the molecule `Cc1cccc(-c2[nH]ncc2-c2ccc3ncc(C(=O)O[C@H]4CC[C@](C)(N)CC4)cc3c2)n1` [Compound 1196, (4-amino-4-methyl-cyclohexyl) 6-[5-(6-methyl-2-pyridyl)-1H-pyrazol-4-yl]quinoline-3-carboxylate], in test [1], the IC50 is below 20 nM. Also, the Ki in test [2] is 0.0398 to 0.316 nM.

`Cc1cccc(-c2[nH]cnc2-c2ccc3ncc(NCCN4CCC(C(=O)O)CC4)cc3c2)n1` [Compound 670, 1-[2-[[6-[5-(6-methyl-2-pyridyl)-1H-imidazol-4-yl]-3-quinolyl]amino]ethyl]piperidine-4-carboxylic acid]: in test [1], the IC50 was 200 to 1260 nM. In addition, the Ki in test [2] is 0.0398 to 0.316 nM.

On to `CNCCn1cc(-c2cnc3ccc(-c4c(-c5cccc(C)n5)nnn4C)cc3c2)cn1` [Compound 628, N-methyl-2-(4-(6-(1-methyl-4-(6-methylpyridin-2-yl)-1H-1,2,3-triazol-5-yl)quinolin-3-yl)-1H-pyrazol-1-yl)ethan-1-amine], for which, in test [1], the IC50 is 25.1 to 158 nM. The Ki in test [2] is below 0.0316 nM.
